Here are results for two compounds from patent US20250144067A1, “PERSONALIZED STARVATION THERAPY FOR CANCER” (Faeth Therapeutics, Inc., priority 2021, published 2025).

One experiment relates to cancer cell lines. The experiment is described as follows: Drug validation in multiple cancer cell lines, four media conditions. The following applies: cholesterol-free+simvastatin medium compared to the other three media conditions. The class given is cell-based, human. Here is the method: (§1) A series of experiments were designed to assess the effect of cholesterol depletion and statin treatment on the anti-cancer effect of drugs identified in the FDA drug screens. Cancer cells were grown in media containing cholesterol and cholesterol-free media in the presence or absence of simvastatin. The effect of the drug identified in the FDA drug screens on cancer cell growth was measured.
[…]. Medium 1 was ‘complete medium’ containing all essential nutrients, including cholesterol. Medium 2 was cholesterol-free medium. Medium 3 was cholesterol-free medium supplemented with simvastatin 40 nM. […]
On Day 5, cell growth was measured by absorbance or fluorescence. For absorbance growth measurements, spent media was discarded, and wells were stained with a crystal violet staining solution, washed, and dried. […] Plates were read using a Biotek Powerwave plate reader to determine the absorbance of the crystal violet released as an indicator of cell growth at a wavelength of 595 nm. For fluorescence growth measurements, 100 μL of a resazurin solution was added to each well and the plate incubated at 37° C. for four hours. Plates were read using a Biotek Powerwave plate reader to determine the fluorescence of reosurfin as an indicator of cell growth at a wavelength of 590 nm. […]

A further experiment has as its system PC9 lung cancer tumors. The experiment is described as follows: Anti-tumour activity with low cholesterol diet in PC9 bearing mice. The class given is in vivo, C.B-17 SCID mice. The following applies: Low Chol Diet + toremifene 2 mg/kg with simvastatin 10 mg/kg, daily oral gavage, compared to simvastatin 20 mg/kg. From the text:
(§2) A series of in vivo experiments were designed to assess the effect of cholesterol depletion on cancer cell growth. The added role of statin treatment and additional therapeutic agents was studied by dosing mice and assessing tumor growth over a defined time period.
Immunodeficient C.B-17 SCID (C.B-Igh-1^b/IcrTac-Prkdc^scid) mice were subcutaneously injected with human lung cancer PC9 cells to initiate tumor development and randomly assigned into one of three experimental groups (n=6 per group): “Low Chol Diet” containing less than 0.05% dietary cholesterol and vehicle, Low Chol Diet and simvastatin 20 mg/kg, and Low Chol Diet and simvastatin 10 mg/kg in combination with toremifene 2 mg/kg. Once the tumor volume reached ˜200 mm^3, treatment was commenced with vehicle, simvastatin, and toremifene administered daily by oral gavage. Treatment continued for 28 days or until the tumor volume exceeded 2000 mm^3. Throughout the course of the study, tumor volume was measured twice per week.

In the next experiment the test system is H292 cells. The experiment is described as follows: Drug validation in H292 cells, three media conditions. The conditions noted are these: cholesterol-free medium + simvastatin 40 nM vs complete and cholesterol-free medium. The class given is cell-based, human. As to the method:
as §1
On Day 1, cells were seeded at a density of around 7500 cells/well in a Corning 96-well flat bottom culture plate in complete media containing 10% FBS.
On Day 5, spent media was discarded, and wells were stained with a crystal violet staining solution, washed and dried. 100 μL of 10% acetic acid was added to each well to release the crystal violet taken up by the cells. Plates were read using a Biotek Powerwave plate reader to determine the absorbance of the crystal violet released as an indicator of cell growth at a wavelength of 595 nm.
Growth curves showing absorbance of crystal violet at 595 nm were plotted from test wells against the logarithmic concentration of the validation drug. FIG. 7A-7C show growth of cancer cell lines in the three media conditions subjected to increasing doses of isavuconazole (FIG. 7A), pitolisant (FIG. 7B), or toremifene (FIG. 7C) from the FDA screen under validation. For each of the drugs being validated, there is a strong ‘left-shift’ in the dose response curve for cells are grown in the cholesterol-free medium+simvastatin.

Another experiment concerns SW480 colorectal tumour. The experiment is described as follows: Anti-tumour activity with low cholesterol diet in SW480 tumour bearing mice. The class given is in vivo, M-NSG mice.
Source text: as §2
Immunodeficient M-NSG (NOD-Prkdc^scid Il2rgem1Smoc) mice were subcutaneously injected with human colorectal cancer SW480 cells and matrigel to initiate tumor development and randomly assigned into one of four experimental groups (n=6 per group): normal cholesterol diet “Normal Chol Diet” containing 0.2% dietary cholesterol and vehicle, low cholesterol diet “Low Chol Diet” containing less than 0.05% dietary cholesterol and vehicle, Low Chol Diet treated with atorvastatin at 15 mg/kg, or Low Chol Diet treated with toremifene at 2 mg/kg. Once the tumor volume reached ˜150 mm^3, experimental diets were commenced. Atorvastatin, vehicle, or toremifene treatment by oral gavage was initiated four days after the diet change and continued daily until the tumor volume exceeded 2000 mm^3 or the time end-point of three weeks after treatment initiation was reached. Throughout the course of the study, tumor volume was measured twice per week.

For experiment [1], the system named is NCI-H292 lung cancer cells. The experiment is described as follows: FDA drug screening, complete media vs cholesterol-free media with simvastatin (TABLE 2). The class given is cell-based, human. The following applies: listed as Atorvastatin.
In experiment [2] the test system is NCI-H292 mucoepidermoid lung cancer tumour. The experiment is described as follows: Anti-tumour activity with low cholesterol diet in NCI-H292 tumour bearing mice. The class given is in vivo, BALB/c nude mice. The conditions noted are these: Low Chol Diet + atorvastatin 30 mg/kg daily oral gavage vs Low Chol Diet + vehicle.
Source text: as §2
Immunodeficient BALB/c nude mice were subcutaneously injected with human mucoepidermoid lung cancer NCI-H292 cells to initiate tumor development and randomly assigned into one of three experimental groups (n=6 per group): normal cholesterol diet “Normal Chol Diet” containing 0.2% dietary cholesterol without atorvastatin; low cholesterol diet “Low Chol Diet” containing less than 0.05% dietary cholesterol without atorvastatin; or Low Chol Diet treated with atorvastatin at 30 mg/kg by oral gavage. Once the tumor volume reached ˜150 mm^3, experimental diets were commenced. Atorvastatin or vehicle treatment was initiated four days after the diet change and continued daily until the tumor volume exceeded 2000 mm^3 or the time end-point of three weeks after diet commencement was reached. Throughout the course of the study, tumor volume was measured twice per week.

Experiment [3] concerns NCI-H292 lung cancer cells. The experiment is described as follows: FDA drug screening, complete media vs cholesterol-free media without statin (TABLE 1). The class given is cell-based, human.

On to `CN(C)CCOc1ccc(/C(=C(/CCCl)c2ccccc2)c2ccccc2)cc1` [toremifene], for which the “anti-proliferative activity (dose-response curve shift)” value in the experiment with cancer cell lines is recorded as “strong left-shift”. For the same compound, the tumor growth suppression entry in the experiment with PC9 lung cancer tumors was “enhanced the tumor growth suppression”; with SW480 colorectal tumour (Low Chol Diet + toremifene 2 mg/kg daily oral gavage vs Low Chol Diet + vehicle) it was “enhanced”. Also, in the experiment on H292 cells, the “anti-proliferative effect of the drug (dose response curve shift)” value was “strongly enhanced”. In addition, in the experiment on SW480 colorectal tumour (Low Chol Diet + toremifene 2 mg/kg), the “tumor growth suppression, rank among the four conditions” value is “highest”.
Consider `CC(C)c1c(C(=O)Nc2ccccc2)c(-c2ccccc2)c(-c2ccc(F)cc2)n1CC[C@@H](O)C[C@@H](O)CC(=O)O` [atorvastatin, reference compound], for which, in experiment [1] (NCI-H292 cells, FDA drug library screen, cholesterol-free media with simvastatin 0.04 μM), the “Cholesterol-free media + simvastatin (0.04 μM)” value is reported as 0.6169. Also, the “Complete Media” value in experiment [1] (NCI-H292 cells, FDA drug library screen, complete media) worked out at 0.8658. The Difference in experiment [1] (complete media minus cholesterol-free media + simvastatin, >0 enhanced anti-cancer activity, about 0 neutral, <0 antagonist) came out at 0.25; in experiment [3] (Complete minus Cholesterol-free, >0 enhanced anti-cancer activity, about 0 neutral, <0 antagonist), 0.03. Besides, the results for the tumor growth suppression entry (in experiment [2]; with SW480 colorectal tumour (Low Chol Diet + atorvastatin 15 mg/kg daily oral gavage vs Low Chol Diet + vehicle)) were “enhanced the tumor growth suppression” and “enhanced”, respectively. The Cholesterol-free in experiment [3] (NCI-H292 cells, cholesterol-free media without statin, FDA drug library screen) is given as 0.8356. This compound showed a Complete in experiment [3] (NCI-H292 cells, complete media, FDA drug library screen) of 0.8623.
